This is an account of results in patent US11178868B2, “Alkynyl-substituted 3-phenylpyrrolidine-2,4-diones and use thereof as herbicides” (Bayer CropScience Aktiengesellschaft, priority 2015, dated 2021).

What all share (type): in vivo
Assay [1] deals with Alopecurus myosuroides. Briefly: Pre-emergence herbicidal effect. To be noted: scored visually after 3 weeks. From the text: (§1) Seeds of monocotyledonous and dicotyledonous weed plants and crop plants are laid out in wood-fibre pots in sandy loam and covered with soil. The compounds according to the invention formulated in the form of wettable powders (WP) or as emulsion concentrates (EC) are then applied as aqueous suspension or emulsion at a water application rate of 600 to 800 I/ha (converted) with the addition of 0.2% wetting agent to the surface of the covering soil. After the treatment, the pots are placed in a greenhouse and kept under good growth conditions for the trial plants. The damage to the test plants is scored visually after a test period of 3 weeks by comparison with untreated controls (herbicidal activity in percent (%): 100% activity=the plants have died, 0% activity=like control plants).

The test system of assay [2] is Echinochloa crus-galli. The assay is described as follows: Pre-emergence herbicidal effect. To be noted: scored visually after 3 weeks.
From the text: as §1

For assay [3], the system named is Lolium multiflorum. The assay is described as follows: Pre-emergence herbicidal effect. To be noted: scored visually after 3 weeks.
From the text: as §1

The subject of assay [4] is Setaria viridis. Briefly: Pre-emergence herbicidal effect. The note with it: scored visually after 3 weeks.
From the text: as §1

Assay [5] deals with Alopecurus myosuroides. Briefly: Post-emergence herbicidal effect. The note with it: assessed visually after about 3 weeks. The procedure: (§2) Seeds of monocotyledonous and dicotyledonous weed and crop plants are laid out in sandy loam in wood-fibre pots, covered with soil and cultivated in a greenhouse under good growth conditions. 2 to 3 weeks after sowing, the test plants are treated at the one-leaf stage. The compounds according to the invention, formulated in the form of wettable powders (WP) or as emulsion concentrates (EC), are then sprayed as aqueous suspension or emulsion at a water application rate of 600 to 800 I/ha (converted) with the addition of 0.2% of wetting agent onto the green parts of the plants. After the test plants have been left to stand in the greenhouse under optimal growth conditions for about 3 weeks, the action of the preparations is assessed visually in comparison to untreated controls (herbicidal action in percent (%): 100% activity=the plants have died, 0% activity=like control plants).

The test system of assay [6] is Echinochloa crus-galli. Briefly: Post-emergence herbicidal effect. The note with it: assessed visually after about 3 weeks. The procedure: as §2
The test system of assay [7] is Lolium multiflorum. The assay is described as follows: Post-emergence herbicidal effect. To be noted: assessed visually after about 3 weeks. The method, then: as §2
Assay [8] concerns Setaria viridis. The assay is described as follows: Post-emergence herbicidal effect. The note with it: assessed visually after about 3 weeks. The method, then:
as §2

In assay [9] the test system is Avena fatua. Briefly: Pre-emergence herbicidal effect. The note with it: scored visually after 3 weeks.
From the text: as §1

In assay [10] the test system is Avena fatua. Briefly: Post-emergence herbicidal effect. To be noted: assessed visually after about 3 weeks. The method, then:
as §2

In the case of `C#Cc1cc(C)c(C2=C(OC(=O)C(C)C)C3(CCCC(OCCCC)C3)NC2=O)c(C)c1` (stereo not shown) [Example P6], in the assay on Alopecurus myosuroides [1] (320 g a.i./ha), the “Herbicidal effect against [%] ALOMY” value amounted to 80%. Besides, the “Herbicidal effect against [%] ECHCG” value in the assay with Echinochloa crus-galli [2] (320 g a.i./ha) is reported as 90%. Also, the “Herbicidal effect against [%] LOLMU” value with Lolium multiflorum [3] (320 g a.i./ha) is given as 100%. Moreover, in the assay on Setaria viridis [4] (320 g a.i./ha), the “Herbicidal effect against [%] SETVI” value was 100%.

On to `CC#Cc1cc(CC)c(C2=C(O)C3(CCCC(OCC)C3)NC2=O)c(CC)c1` (stereo not shown) [Example D1], for which the “Herbicidal effect against [%] ALOMY” value in the assay on Alopecurus myosuroides [5] (20 g a.i./ha) was 80%; with Alopecurus myosuroides [5] (80 g a.i./ha), 100%; with Alopecurus myosuroides [1] (80 g a.i./ha), 100%; with Alopecurus myosuroides [1] (320 g a.i./ha), 100%. Moreover, the “Herbicidal effect against [%] ECHCG” value with Echinochloa crus-galli [6] (20 g a.i./ha), in the assay on Echinochloa crus-galli [6] (80 g a.i./ha), in the assay on Echinochloa crus-galli [2] (80 g a.i./ha) and in the assay on Echinochloa crus-galli [2] (320 g a.i./ha) was 100% in each case. In addition, the “Herbicidal effect against [%] LOLMU” value in the assay with Lolium multiflorum [7] (80 g a.i./ha) is on record as 90%; with Lolium multiflorum [3] (80 g a.i./ha) it was 100%; in the assay with Lolium multiflorum [3] (320 g a.i./ha), 100%. Further, the “Herbicidal effect against [%] SETVI” value in the assay with Setaria viridis [8] (20 g a.i./ha) worked out at 90%; in the assay on Setaria viridis [8] (80 g a.i./ha), 100%; with Setaria viridis [4] (80 g a.i./ha), 100%; with Setaria viridis [4] (320 g a.i./ha), 100%. Moreover, the “Herbicidal effect against [%] AVEFA” value in the assay with Avena fatua [9] (80 g a.i./ha) was 80%; with Avena fatua [9] (320 g a.i./ha) it was 100%.

Turning to `C#Cc1cc(CC)c(C2=C(O)C3(CCCC(OCCOC)C3)NC2=O)c(CC)c1` (stereo not shown) [Example D10], the “Herbicidal effect against [%] ALOMY” value is listed as 90% with Alopecurus myosuroides [5] (20 g a.i./ha), 90% in the assay with Alopecurus myosuroides [5] (80 g a.i./ha), 90% in the assay on Alopecurus myosuroides [1] (80 g a.i./ha) and 100% in the assay on Alopecurus myosuroides [1] (320 g a.i./ha). Besides, the “Herbicidal effect against [%] ECHCG” value turned out to be 90% in the assay with Echinochloa crus-galli [6] (20 g a.i./ha), 90% with Echinochloa crus-galli [6] (80 g a.i./ha), 100% in the assay on Echinochloa crus-galli [2] (80 g a.i./ha) and 100% in the assay with Echinochloa crus-galli [2] (320 g a.i./ha). Besides, the “Herbicidal effect against [%] AVEFA” value was 80% in the assay on Avena fatua [10] (20 g a.i./ha), 90% in the assay on Avena fatua [10] (80 g a.i./ha), 90% in the assay with Avena fatua [9] (80 g a.i./ha) and 100% in the assay with Avena fatua [9] (320 g a.i./ha). Further, the “Herbicidal effect against [%] SETVI” value in the assay with Setaria viridis [4] (80 g a.i./ha) and with Setaria viridis [4] (320 g a.i./ha) was 100% throughout.

Take `CC#Cc1cc(C)c(C2=C(OC(=O)OC(C)C)C3(CCCC(OCCOC)C3)NC2=O)c(C)c1` (stereo not shown) [Example P14]: the “Herbicidal effect against [%] ALOMY” value in the assay with Alopecurus myosuroides [5] (20 g a.i./ha), with Alopecurus myosuroides [5] (80 g a.i./ha), in the assay on Alopecurus myosuroides [1] (80 g a.i./ha) and in the assay with Alopecurus myosuroides [1] (320 g a.i./ha) was 100% in each case. Also, the “Herbicidal effect against [%] ECHCG” value in the assay with Echinochloa crus-galli [6] (20 g a.i./ha), in the assay with Echinochloa crus-galli [6] (80 g a.i./ha), with Echinochloa crus-galli [2] (80 g a.i./ha) and with Echinochloa crus-galli [2] (320 g a.i./ha) was 100% throughout. Also, the “Herbicidal effect against [%] LOLMU” value with Lolium multiflorum [7] (20 g a.i./ha), with Lolium multiflorum [7] (80 g a.i./ha), in the assay with Lolium multiflorum [3] (80 g a.i./ha) and in the assay with Lolium multiflorum [3] (320 g a.i./ha) was 100% throughout. In addition, the “Herbicidal effect against [%] AVEFA” value in the assay with Avena fatua [10] (20 g a.i./ha) came to 90%; in the assay with Avena fatua [10] (80 g a.i./ha) it was 90%; with Avena fatua [9] (80 g a.i./ha) it was 100%; in the assay on Avena fatua [9] (320 g a.i./ha) it was 100%. In addition, the “Herbicidal effect against [%] SETVI” value with Setaria viridis [8] (20 g a.i./ha) is on record as 90%; in the assay on Setaria viridis [8] (80 g a.i./ha), 100%; with Setaria viridis [4] (80 g a.i./ha), 100%; in the assay on Setaria viridis [4] (320 g a.i./ha), 100%.

For `CC#Cc1cc(C)c(C2=C(O)C3(CCCC(OCC)C3)NC2=O)c(C)c1` (stereo not shown) [Example D2], the “Herbicidal effect against [%] ALOMY” value in the assay with Alopecurus myosuroides [5] (80 g a.i./ha) is 90%; in the assay with Alopecurus myosuroides [1] (80 g a.i./ha), 100%; in the assay on Alopecurus myosuroides [1] (320 g a.i./ha), 100%. For the same compound, the “Herbicidal effect against [%] ECHCG” value in the assay with Echinochloa crus-galli [6] (20 g a.i./ha) was 90%; with Echinochloa crus-galli [6] (80 g a.i./ha), 100%; in the assay with Echinochloa crus-galli [2] (80 g a.i./ha) it was 100%; in the assay on Echinochloa crus-galli [2] (320 g a.i./ha), 100%. The “Herbicidal effect against [%] LOLMU” value in the assay on Lolium multiflorum [7] (80 g a.i./ha), with Lolium multiflorum [3] (80 g a.i./ha) and in the assay with Lolium multiflorum [3] (320 g a.i./ha) was 100% each time. For the same compound, the results for the “Herbicidal effect against [%] SETVI” value in the assay on Setaria viridis [8] (80 g a.i./ha), in the assay with Setaria viridis [4] (80 g a.i./ha) and with Setaria viridis [4] (320 g a.i./ha) were 90%, 100% and 100%, respectively. Besides, the “Herbicidal effect against [%] AVEFA” value came to 80% in the assay on Avena fatua [9] (80 g a.i./ha) and 100% in the assay with Avena fatua [9] (320 g a.i./ha).

On to `CC#Cc1cc(CC)c(C2=C(OC(=O)OCC)C3(CCCC(OCC)C3)NC2=O)c(CC)c1` (single isomer, unassigned) [Example P2], for which the “Herbicidal effect against [%] ECHCG” value with Echinochloa crus-galli [6] (80 g a.i./ha) amounted to 80%; in the assay with Echinochloa crus-galli [2] (80 g a.i./ha) it was 100%; in the assay on Echinochloa crus-galli [2] (320 g a.i./ha) it was 100%. Besides, the “Herbicidal effect against [%] ALOMY” value in the assay with Alopecurus myosuroides [1] (80 g a.i./ha) and in the assay with Alopecurus myosuroides [1] (320 g a.i./ha) was 100% in each case. Also, the “Herbicidal effect against [%] LOLMU” value in the assay with Lolium multiflorum [3] (80 g a.i./ha) and with Lolium multiflorum [3] (320 g a.i./ha) was 100% in each case. In addition, the “Herbicidal effect against [%] AVEFA” value in the assay on Avena fatua [9] (80 g a.i./ha) and in the assay with Avena fatua [9] (320 g a.i./ha) was 100% each time. Also, the “Herbicidal effect against [%] SETVI” value in the assay with Setaria viridis [4] (80 g a.i./ha) and in the assay on Setaria viridis [4] (320 g a.i./ha) was 100% throughout.

For the compound `CC#Cc1cc(CC)c(C2=C(OC(=O)C(C)C)C3(CCCC(OCC)C3)NC2=O)c(CC)c1` (stereo not shown) [Example P3], the “Herbicidal effect against [%] ECHCG” value stood at 90% with Echinochloa crus-galli [6] (80 g a.i./ha), 100% in the assay with Echinochloa crus-galli [2] (80 g a.i./ha) and 100% with Echinochloa crus-galli [2] (320 g a.i./ha). Also, the entries for the “Herbicidal effect against [%] ALOMY” value in the assay with Alopecurus myosuroides [1] (80 g a.i./ha) and in the assay on Alopecurus myosuroides [1] (320 g a.i./ha) were 90% and 100%, respectively. Further, the “Herbicidal effect against [%] LOLMU” value in the assay with Lolium multiflorum [3] (80 g a.i./ha) and in the assay on Lolium multiflorum [3] (320 g a.i./ha) was 100% throughout. For the same compound, in the assay with Avena fatua [9] (320 g a.i./ha), the “Herbicidal effect against [%] AVEFA” value worked out at 80%. For the same compound, the “Herbicidal effect against [%] SETVI” value with Setaria viridis [4] (80 g a.i./ha) and with Setaria viridis [4] (320 g a.i./ha) was 100% each time.

Turning to `C#Cc1cc(C)c(C2=C(OC(=O)OCC)C3(CCCC(OCCCC)C3)NC2=O)c(C)c1` (stereo not shown) [Example P5], the “Herbicidal effect against [%] ALOMY” value in the assay on Alopecurus myosuroides [1] (80 g a.i./ha) was determined as 80%; with Alopecurus myosuroides [1] (320 g a.i./ha), 100%. Moreover, the “Herbicidal effect against [%] ECHCG” value amounted to 90% in the assay on Echinochloa crus-galli [2] (80 g a.i./ha) and 100% in the assay on Echinochloa crus-galli [2] (320 g a.i./ha). Besides, the “Herbicidal effect against [%] LOLMU” value in the assay with Lolium multiflorum [3] (80 g a.i./ha) came out at 90%; in the assay with Lolium multiflorum [3] (320 g a.i./ha) it was 100%. The “Herbicidal effect against [%] AVEFA” value in the assay with Avena fatua [9] (320 g a.i./ha) is reported as 80%. In addition, the “Herbicidal effect against [%] SETVI” value with Setaria viridis [4] (80 g a.i./ha) was determined as 90%; with Setaria viridis [4] (320 g a.i./ha) it was 100%.
